# Measured values reported in patent US20110034385A1, “Compositions Useful for the Treatment of Diabetes and Other Chronic Disorder” (NATIONAL INSTITUTE OF IMMUNOLOGY, priority 2008, published 2011).
# Legend:
# [1] = tested on: MCF 7 cells; experiment: MTT cell proliferation assay; type: cell-based; conditions: 3 days after treatment
# Experimental: Cells were plated in 24-well plates with 10,000 cells/well in regular DMEM media containing 10% FBS. All treatments were done in triplicates. Growth was measured 3 days after treatment. Growth was assayed by the MTT assay. A total of 50 μl of 5 mg/ml MTT solution in PBS was added to each well. After incubation for 4 h at 37° C., formazan crystals were lysed with 500 μl of solubilization solution (20% SDS, 50% DMSO). Absorbance was measured with a plate reader at 570 nm using a 670-nm differential filter.
# [2] = tested on: rats with kaolin/carrageenan (KC) arthritis; experiment: Hot plate test in kaolin/carrageenan arthritis; type: in vivo, rat
# Experimental: Male wistar rats, weighing 180-220 g were selected and fed ad libitum. After four days of acclimatization, the rats were divided into five groups. Group I—control, Group II—Ibuprofen (10 mg/kg b.wt.), Group III—Ibuprofen (50 mg/kg b.wt.), Group IV—Ibuprofen coupled to transthyretin (TTR) or GNNQQNY injected intraperitoneally and Group V—carrageenin control. Groups II-V was anesthetized with halothane and KC arthritis was induced by an intra-articular injection of a mixture of 3% kaolin and 3% carrageenan (0.1 ml in sterile saline) into the synovial cavity of right knee joint. The joint was then manipulated by rapid flexion and extension movements for 1 min. Half an hour after injection of kaolin/carrageenan, the animals were treated as indicated above, with group II and II receiving daily injections of Ibuprofen orally. In the hot plate test method, rats from each group were placed on an analgesiometer, at a temperature of 55° C., and the latency in licking their paw was determined with a stop watch, one hour after treatment on day one (FIG. 32a), and thereafter everyday for four days (FIG. 32b). A 90-s cut-off time was imposed to prevent tissue damage.
# [3] = tested on: ovariectomized (OVX) rats; conditions: rat, in vivo
# Experimental: 44 female Sprague-Dawley rats (Charles River Laboratory, Wilmington, Mass.), approximately 90 days of age with an average body weight of 230 g were grouped into four groups at the beginning of the study. All rats were anesthetized with an intraperitoneal injection of ketamine hydrochloride and xylazine at doses of 50 and 10 mg/kg body weight (BW), respectively. Bilateral ovariectomies were performed in three groups from a dorsal approach. All rats were housed individually at 25° C. with a 12 h light/12 h dark cycle. The food consumption of ovariectomized (OVX) rats was restricted to that of the control rats to minimize increase in the body weight associated with ovariectomy. All rats were treated for 8 weeks with vehicle or Human/salmon CT (Sigma) either intermittently by subcutaneous injection or continuously by Alzet osmotic minipumps (Model 2ML4; Alza Corp., Palo Alto, Calif.) containing 200 μl of either CT (4 μg/kg) or SCA (Supramolecular calcitonin assembly) (2 mg/ml) in 2% mannitol, designed to deliver the solutions at a constant rate of 2.5 μl/h for 28 days. The intermittent treatments started a day after surgery. The minipumps for continuous CT or Calcitonin SCA or vehicle treatments were implanted at the time of surgery (day 0) and replaced after 3 weeks in case of continuous CT and vehicle treatment. […] For subcutaneous injections of CT, the hormone was dissolved in a vehicle of 2% mannitol.
# Half of the OVX rats from this group were injected subcutaneously on alternate days with 2% mannitol as a vehicle. The remaining OVX rats in this group were implanted subcutaneously with Alzet osmotic minipumps for continuous infusion of vehicle.
# Each OVX rat of one group was injected subcutaneously on alternate days with salmon CT at a dose of 16 U/kg BW (4 μg/kg b wt), and the other was implanted subcutaneously with an Alzet osmotic minipump for continuous infusion of human CT. The daily dose delivered to each rat by the minipump was 8 U/kg BW (2 μg/kg BW), which was equivalent to the dose given to the preceding group through subcutaneous injections on alternate days (16 U/kg).
# Serum samples were stored at −80° C. until analyzed for their CT concentration by immunoassay methods with a commercially available kit (Bio-Merica). […] Calcitonin in serum was measured by an immunoassay kit.
# Data are expressed as the mean±standard deviation (SD) for each group. Statistical differences were evaluated by analysis of variance. P values<0.05 were considered to be significant.
molecule,measurement,setting,value
"IGF 1: Insulin like growth factor I, positive control for proliferation of MCF 7 cells",proliferation of MCF 7 cells,[1],mitogenic
CC(C)Cc1ccc(C(C)C(=O)O)cc1 (centres unmarked) [Ibuprofen],latency in licking paw (heat endured),[2]; 10 mg/kg b.wt orally,up to 12 sec
same,latency in licking paw (heat endured),[2]; 50 mg/kg b.wt orally,≤ 17 s
CC(C)C[C@H](NC(=O)[C@H](CCCCN)NC(=O)CNC(=O)[C@H](CC(C)C)NC(=O)[C@@H](NC(=O)[C@@H]1CSSC[C@H](N)C(=O)N[C@@H](CO)C(=O)N[C@@H](CC(N)=O)C(=O)N[C@@H](CC(C)C)C(=O)N[C@@H](CO)C(=O)N[C@@H]([C@@H](C)O)C(=O)N1)C(C)C)C(=O)N[C@@H](CO)C(=O)N[C@@H](CCC(N)=O)C(=O)N[C@@H](CCC(=O)O)C(=O)N[C@@H](CC(C)C)C(=O)N[C@@H](Cc1c[nH]cn1)C(=O)N[C@@H](CCCCN)C(=O)N[C@@H](CC(C)C)C(=O)N[C@@H](CCC(N)=O)C(=O)N[C@H](C(=O)N[C@@H](Cc1ccc(O)cc1)C(=O)N1CCC[C@H]1C(=O)N[C@@H](CCCNC(=N)N)C(=O)N[C@H](C(=O)N[C@@H](CC(N)=O)C(=O)N[C@H](C(=O)NCC(=O)N[C@@H](CO)C(=O)NCC(=O)N[C@H](C(=O)N1CCC[C@H]1C(N)=O)[C@@H](C)O)[C@@H](C)O)[C@@H](C)O)[C@@H](C)O [SCA],Calcitonin (serum),[3],19.1 ± 4.2
same,antibody against salmon calcitonin,[3],negligible
same,serum levels of calcitonin,[3],0.019 ng/mL
same,time depot keeps on releasing calcitonin,[3],6-8 weeks
same,time serum calcitonin maintained at a higher level,[3],up to 60 days
